Reference: patent publication US6403554B2, “Polyunsaturated fatty acid derivatives and their use” (Ardenia Investments Ltd., priority 1998, dated 2002)

Key:
[1] = tested on: antibody-forming cells (AFC) in the spleen; assay: Humoral immune response: counting antibody-forming cells (AFC) in the spleen according to Cunningham, mice immunised with sheep erythrocytes; type: in vivo, C57B1/6 mice; conditions: for Amount of antibody-forming cells per 10^6 spleen cells, M ± SEM (relative amount of AFC) / Amount of antibody-forming cells per spleen, M ± SEM (total AFC amount): 5-th day after injection, female mice; for Effect, % on AFC per 10^6 spleen cells / Effect, % on AFC per spleen: versus animals immunised only with sheep erythrocytes; for immunostimulating action: dose of 136.5 μg/mouse; for Immunogenic activity: doses of 45.5 and 91 μg/mouse
Protocol: (§1) 0.15 ml of compound 10 was administered intravenously to 6 mice females of CS7B1/6 line (weight 18-22 g) in doses of 45.5, 91 and 136.5 μg of compound 10 per capita for each testing group according to the dose. Simultaneously, a suspension of 5·10^7 sheep erythrocytes was injected intraperitoneally (0.2 ml per capita). Mice in the control group were injected intravenously with equal volume of saline. The effects of compound 10 on humoral immune response were analyzed both by counting the quantity of AFC in the spleen according to Cunningham (per 10^6 spleen cells and per spleen) and estimating the titers of hemagglutining antibodies in serum of the animals (Cunningham A. J., Nature, 1965, Vol.207, No 5001. P.1106-1107), while the titers of hemagglutinating antibodies were evaluated according to litterature (Evans J. et al., Cell, 1974; Vol 3., p.153-158, Feizi T., Menger E., Transfusion, 1970, Vol. 10, p.33-35,).
(§2) 0.15 ml of compound 11 was administered intravenously to 6 female mice of the C57B1/6 line (weight 18-22 g) in doses of 45.5, 91 and 136.5 μg of compound 11 per capita for each testing group according to the dose. Simultaneously, a suspension of 5·10^7 sheep erytrocytes was injected intraperitoneally (0.2 ml per capita). Mice in the control group were injected intravenously with an equal volume of saline. The effects of compound 11 on humoral immune response was analysed both by counting the quantity of AFC in the spleen according to Cunningham (per 10^6 spleen cells and per spleen) and estimating the titers of hemagglutining antibodies in serum of the animals.
as §2, with “12” for “11”, “erythrocytes” for “erytrocytes”, “analyzed” for “analysed”
as §2, with “compound 8” for “compound 11”, “sheep erythrocytes” for “sheep erytrocytes”, “Mice of” for “Mice in”, “response were analyzed” for “response was analysed”
as §2, with “compound 3” for “compound 11”, “Mice of” for “Mice in”, “with” for “with an”, “response were” for “response was”
(§3) 0.15 ml of compound 4 was administered intravenously to 6 female mice of the C57B1/6 line (weight 18-22 g) in a doses of 45.5, 91 and 136.5 μg of compound 4 per capita for each testing group according to the dose. Simultaneously, a suspension of 5·10^7 sheep erythrocytes was injected intraperitoneally (0.2 ml per capita). […]

[2] = tested on: hemagglutinating antibodies in serum; assay: Humoral immune response: titers of hemagglutinating antibodies in serum; type: in vivo, C57B1/6 mice; conditions: for Effect, % on hemagglutinins: versus control; for Amount of hemagglutinins: serum, female mice
Protocol: as §1, §2
as §2, with “12” for “11”, “erythrocytes” for “erytrocytes”, “analyzed” for “analysed”
as §2, with “compound 8” for “compound 11”, “sheep erythrocytes” for “sheep erytrocytes”, “Mice of” for “Mice in”, “response were analyzed” for “response was analysed”
as §2, with “compound 3” for “compound 11”, “Mice of” for “Mice in”, “with” for “with an”, “response were” for “response was”
as §3

| Structure (SMILES) | Amount of antibody-forming cells per 10^6 spleen cells, M ± SEM (relative amount of AFC) ([1]; 45.5 μg/mouse i.v.) | Amount of antibody-forming cells per spleen, M ± SEM (total AFC amount) ([1]; 45.5 μg/mouse i.v.) | Effect, % on AFC per 10^6 spleen cells ([1]; 45.5 μg/mouse i.v.) | Effect, % on AFC per spleen ([1]; 45.5 μg/mouse i.v.) | Amount of antibody-forming cells per 10^6 spleen cells, M ± SEM (relative amount of AFC) ([1]; 91 μg/mouse i.v.) | Amount of antibody-forming cells per spleen, M ± SEM (total AFC amount) ([1]; 91 μg/mouse i.v.) | Effect, % on AFC per 10^6 spleen cells ([1]; 91 μg/mouse i.v.) | Effect, % on AFC per spleen ([1]; 91 μg/mouse i.v.) | Amount of antibody-forming cells per 10^6 spleen cells, M ± SEM (relative amount of AFC) ([1]; 136.5 μg/mouse i.v.) | Amount of antibody-forming cells per spleen, M ± SEM (total AFC amount) ([1]; 136.5 μg/mouse i.v.) | immunostimulating action [1] | Immunogenic activity [1] | Effect, % on hemagglutinins ([2]; 91 μg/mouse i.v.) | Effect, % on hemagglutinins ([2]; 136.5 μg/mouse i.v.) | Amount of hemagglutinins ([2]; 45.5 μg/mouse i.v.) | Amount of hemagglutinins ([2]; 91 μg/mouse i.v.) | Amount of hemagglutinins ([2]; 136.5 μg/mouse i.v.) |
| --- | --- | --- | --- | --- | --- | --- | --- | --- | --- | --- | --- | --- | --- | --- | --- | --- | --- |
| CC/C=C\C/C=C\C/C=C\CCCCCCCC(=O)NCCOP(=O)(O)O [Compound 17, N-linolenoyl-o-phospho-2-aminoethanol] | 457.3±40.7 | 51.1±4.4 × 10^3 | −3.0 p > 0.05% | −7.4 p > 0.05% | 523.8±45.3 | 63.5±5.1 × 10^3 | +11.1 p > 0.05% | +15.0 p > 0.05% | 619.6±38.9 | 71.6±4.7 × 10^3 | marked immunostimulating action | no immunogenic activity | +2.6 p > 0.05% | +2.6 p > 0.05% |  |  |  |
| CC/C=C\C/C=C\C/C=C\CCCCCCCC(=O)N[C@@H](Cc1ccc(OP(=O)(O)O)cc1)C(=O)O [Compound 20, N-linolenoyl-o-phospho-L-tyrosine] | 512.8±46.2 | 46.4±4.8 × 10^3 | −9.8 p > 0.05% | −7.4 p > 0.05% | 634.5±51.7 | 55.7±5.6 × 10^3 | +11.6 p > 0.05% | +11.2 p > 0.05% | 845.1±43.1 | 75.8±7.7 × 10^3 | marked immunostimulating action | no immunogenic activity | +1.4 p > 0.05% | +2.7 p > 0.05% | 7.4 ± 0.2 Log2 T | 7.5 ± 0.3 Log2 T | 7.6 ± 0.4 Log2 T |
